# From ChEMBL document CHEMBL3085671, “5,6-Dihydro-5-aza-2'-deoxycytidine potentiates the anti-HIV-1 activity of ribonucleotide reductase inhibitors” (Bioorg Med Chem, 2013)
# Active and inactive are the calls of the source. The rule behind the calls is not given here.
# Legend:
# [1] = system: Human immunodeficiency virus 1; assay: Antiviral activity against HIV1 assessed as viral infection; assay type: functional, organism-based
# [2] = system: Human immunodeficiency virus 1; assay: Antiviral activity against HIV1 infected in human U373-MAGI cells assessed as A to G mutation at 20 nM (reference value: 22%); assay type: functional
# [3] = system: Human immunodeficiency virus 1; assay: Antiviral activity against HIV1 infected in human U373-MAGI cells assessed as induction of mutations at 20 nM (reference value: 18%); assay type: functional
# [4] = system: Human immunodeficiency virus 1; assay: Antiviral activity against HIV1 infected in human U373-MAGI cells assessed as C to T mutation at 20 nM (reference value: 13%); assay type: functional
# [5] = Cytotoxicity against human U373-MAGI cells by CellTitre-Glo assay; assay type: cell-based
# [6] = system: Human immunodeficiency virus 1; assay: Antiviral activity against HIV1 infected in human U373-MAGI cells assessed as T to C mutation at 20 nM (reference value: 18%); assay type: functional
# [7] = system: Human immunodeficiency virus 1; assay: Antiviral activity against HIV1 infected in human U373-MAGI cells assessed as G to A mutation at 20 nM (reference value: 27%); assay type: functional
# [8] = system: Human immunodeficiency virus 1; assay: Antiviral activity against HIV1 infected in human U373-MAGI cells assessed as increase in mutant frequency incubated for 2 hrs prior to viral infection followed by compound washout after 24 hrs measured 72 hrs post-infection by flow cytometry; assay type: functional, organism-based
# [9] = system: Human immunodeficiency virus 1; assay: Potentiation of gemcitabine-induced antiviral activity against HIV1 infected in human U373-MAGI cells assessed as G to C mutation at 5 uM; assay type: functional
# [10] = system: Human immunodeficiency virus 1; assay: Inhibition of gemcitabine-induced antiviral activity against HIV1 infected in human U373-MAGI cells at 100 to 200 uM incubated for 2 hrs prior to viral infection followed by compound washout after 24 hrs measured 72 hrs post-infection by flow cytometry; assay type: functional, organism-based
# [11] = system: Human immunodeficiency virus 1; assay: Potentiation of resveratrol-induced antiviral activity against HIV1 infected in human U373-MAGI cells assessed as C to T mutation at 200 uM (reference value: 13%); assay type: functional
# [12] = system: Human immunodeficiency virus 1; assay: Potentiation of gemcitabine-induced antiviral activity against HIV1 infected in human U373-MAGI cells assessed as increase in mutant frequency at 25 uM incubated for 2 hrs prior to viral infection followed by compound washout after 24 hrs measured 72 hrs post-infection by flow cytometry relative to control; assay type: functional
# [13] = system: Human immunodeficiency virus 1; assay: Potentiation of gemcitabine-induced antiviral activity against HIV1 infected in human U373-MAGI cells assessed as induction of mutations at 5 uM (reference value: 18%); assay type: functional
# [14] = system: Human immunodeficiency virus 1; assay: Potentiation of gemcitabine-induced antiviral activity against HIV1 infected in human U373-MAGI cells assessed as induction of mutations at 200 uM (reference value: 18%); assay type: functional
# [15] = system: Human immunodeficiency virus 1; assay: Potentiation of resveratrol-induced antiviral activity against HIV1 infected in human U373-MAGI cells G to A mutation at 200 uM (reference value: 27%); assay type: functional
# [16] = system: Human immunodeficiency virus 1; assay: Antiviral activity against HIV1 infected in human U373-MAGI cells assessed as increase in mutant frequency at 5 to 200 uM incubated for 2 hrs prior to viral infection followed by compound washout after 24 hrs measured 72 hrs post-infection by flow cytometry; assay type: functional
# [17] = system: Human immunodeficiency virus 1; assay: Potentiation of gemcitabine-induced antiviral activity against HIV1 infected in human U373-MAGI cells assessed as C to T mutation at 5 uM (reference value: 13%); assay type: functional
# [18] = system: Human immunodeficiency virus 1; assay: Antiviral activity against HIV1 infected in human U373-MAGI cells assessed as G to A mutation at 200 uM (reference value: 27%); assay type: functional
# [19] = system: Human immunodeficiency virus 1; assay: Antiviral activity against HIV1 infected in human U373-MAGI cells assessed as induction of mutations at 200 uM (reference value: 18%); assay type: functional
# [20] = system: Human immunodeficiency virus 1; assay: Potentiation of gemcitabine-induced antiviral activity against HIV1 infected in human U373-MAGI cells assessed as A to G mutation at 5 uM (reference value: 22%); assay type: functional
# [21] = system: Human immunodeficiency virus 1; assay: Potentiation of deferoxamine-induced antiviral activity against HIV1 infected in human U373-MAGI cells assessed as increase in mutant frequency at 5 to 200 uM incubated for 2 hrs prior to viral infection followed by compound washout after 24 hrs measured 72 hrs post-infection by flow cytometry relative to control; assay type: functional
# [22] = system: Human immunodeficiency virus 1; assay: Potentiation of resveratrol-induced antiviral activity against HIV1 infected in human U373-MAGI cells assessed as G to C mutation at 200 uM; assay type: functional
# [23] = system: Human immunodeficiency virus 1; assay: Potentiation of deferoxamine-induced antiviral activity against HIV1 infected in human U373-MAGI cells at 200 uM incubated for 2 hrs prior to viral infection followed by compound washout after 24 hrs measured 72 hrs post-infection by flow cytometry; assay type: functional, organism-based; conditions: Human immunodeficiency virus 1, U373-MAGI
# [24] = system: Human immunodeficiency virus 1; assay: Antiviral activity against HIV1 infected in human U373-MAGI cells assessed as A to G mutation at 200 uM (reference value: 22%); assay type: functional
# [25] = system: Human immunodeficiency virus 1; assay: Antiviral activity against HIV1 infected in human U373-MAGI cells assessed as G to C mutation at 200 uM; assay type: functional
# [26] = system: Human immunodeficiency virus 1; assay: Antiviral activity against HIV1 infected in human U373-MAGI cells assessed as C to T mutation at 200 uM (reference value: 13%); assay type: functional
# [27] = system: Human immunodeficiency virus 1; assay: Potentiation of gemcitabine-induced antiviral activity against HIV1 infected in human U373-MAGI cells at 5 to 50 uM incubated for 2 hrs prior to viral infection followed by compound washout after 24 hrs measured 72 hrs post-infection by flow cytometry; assay type: functional, organism-based
# [28] = system: Human immunodeficiency virus 1; assay: Potentiation of gemcitabine-induced antiviral activity against HIV1 infected in human U373-MAGI cells G to A mutation at 5 uM (reference value: 27%); assay type: functional
# [29] = system: Human immunodeficiency virus 1; assay: Potentiation of deferoxamine-induced antiviral activity against HIV1 infected in human U373-MAGI cells incubated for 2 hrs prior to viral infection followed by compound washout after 24 hrs measured 72 hrs post-infection by flow cytometry; assay type: functional, organism-based
# [30] = system: Human immunodeficiency virus 1; assay: Antiviral activity against HIV1 infected in human U373-MAGI cells assessed as T to C mutation at 200 uM (reference value: 18%); assay type: functional
# [31] = system: Human immunodeficiency virus 1; assay: Potentiation of resveratrol-induced antiviral activity against HIV1 infected in human U373-MAGI cells assessed as increase in mutant frequency at 5 to 200 uM incubated for 2 hrs prior to viral infection followed by compound washout after 24 hrs measured 72 hrs post-infection by flow cytometry relative to control; assay type: functional
# [32] = system: Human immunodeficiency virus 1; assay: Potentiation of resveratrol-induced antiviral activity against HIV1 infected in human U373-MAGI cells assessed as A to G mutation at 200 uM (reference value: 22%); assay type: functional
# [33] = system: Human immunodeficiency virus 1; assay: Potentiation of gemcitabine-induced antiviral activity against HIV1 infected in human U373-MAGI cells at 5 uM incubated for 2 hrs prior to viral infection followed by compound washout after 24 hrs measured 72 hrs post-infection by flow cytometry; assay type: functional, organism-based; conditions: Human immunodeficiency virus 1, U373-MAGI
# [34] = system: Human immunodeficiency virus 1; assay: Antiviral activity against HIV1 infected in human U373-MAGI cells at 5 to 200 uM incubated for 2 hrs prior to viral infection followed by compound washout after 24 hrs measured 72 hrs post-infection by flow cytometry; assay type: functional, organism-based
# [35] = system: Human immunodeficiency virus 1; assay: Inhibition of gemcitabine-induced antiviral activity against HIV1 infected in human U373-MAGI cells assessed as increase in mutant frequency incubated for 2 hrs prior to viral infection followed by compound washout after 24 hrs measured 72 hrs post-infection by flow cytometry relative to gemcitabine; assay type: functional, organism-based
# [36] = system: Human immunodeficiency virus 1; assay: Potentiation of resveratrol-induced antiviral activity against HIV1 infected in human U373-MAGI cells assessed as T to C mutation at 200 uM (reference value: 18%); assay type: functional
# [37] = Cytotoxicity against human U373-MAGI cells up to 200 uM by CellTitre-Glo assay; assay type: cell-based
# [38] = system: Human immunodeficiency virus 1; assay: Potentiation of resveratrol-induced antiviral activity against HIV1 infected in human U373-MAGI cells at 200 uM incubated for 2 hrs prior to viral infection followed by compound washout after 24 hrs measured 72 hrs post-infection by flow cytometry; assay type: functional, organism-based; conditions: Human immunodeficiency virus 1, U373-MAGI
# [39] = system: Human immunodeficiency virus 1; assay: Potentiation of resveratrol-induced antiviral activity against HIV1 infected in human U373-MAGI cells incubated for 2 hrs prior to viral infection followed by compound washout after 24 hrs measured 72 hrs post-infection by flow cytometry; assay type: functional, organism-based
# [40] = system: Human immunodeficiency virus 1; assay: Potentiation of gemcitabine-induced antiviral activity against HIV1 infected in human U373-MAGI cells assessed as T to C mutation at 5 uM (reference value: 18%); assay type: functional
# [41] = system: Human immunodeficiency virus 1; assay: Antiviral activity against HIV1 infected in human U373-MAGI cells incubated for 2 hrs prior to viral infection followed by compound washout after 24 hrs measured 72 hrs post-infection by flow cytometry; assay type: functional, organism-based; conditions: Human immunodeficiency virus 1, U373-MAGI
# [42] = Selectivity index, ratio of CC50 for human U373-MAGI cells to EC50 for HIV1 infected in human U373-MAGI cells; assay type: toxicity, cell-based; conditions: read-out: Ratio CC50/EC50
# [43] = system: Human immunodeficiency virus 1; assay: Antiviral activity against HIV1 infected in human U373-MAGI cells assessed as T to C mutation at 50 uM (reference value: 18%); assay type: functional
# [44] = system: Human immunodeficiency virus 1; assay: Antiviral activity against HIV1 infected in human U373-MAGI cells assessed as A to G mutation at 50 uM (reference value: 22%); assay type: functional
# [45] = system: Human immunodeficiency virus 1; assay: Antiviral activity against HIV1 infected in human U373-MAGI cells assessed as G to A mutation at 50 uM (reference value: 27%); assay type: functional
# [46] = system: Human immunodeficiency virus 1; assay: Antiviral activity against HIV1 infected in human U373-MAGI cells assessed as C to T mutation at 50 uM (reference value: 13%); assay type: functional
# [47] = system: Human immunodeficiency virus 1; assay: Antiviral activity against HIV1 infected in human U373-MAGI cells assessed as induction of mutations at 50 uM (reference value: 18%); assay type: functional
compound,measurement,setting,value
Nc1ncn([C@@H]2O[C@H](CO)[C@@H](O)[C@H]2O)c(=O)n1 [AZACITIDINE],EC50,[1],53 µM
Nc1ccn([C@@H]2O[C@H](CO)[C@@H](O)C2(F)F)c(=O)n1 [GEMCITABINE],Activity,[2],24%
same,Activity,[3],24%
same,Activity,[4],13%
same,CC50,[5]; u373-magi,62 µM
same,Activity,[6],24%
same,Activity,[7],13%
same,Activity,[8],Dose-dependent effect
NC1=NC(=O)N([C@H]2C[C@H](O)[C@@H](CO)O2)CN1 [KP-1212],Activity,[9],11%
same,inhibition,[10],Active
same,Activity,[11],9%
same,EC50,[1],0.01 µM
same,fold change (FC),[12],4.8
same,Activity,[13],14%
same,Activity,[14],14%
same,Activity,[15],13%
same,fold change (FC),[16],1.6
same,Activity,[17],12%
same,Activity,[18],24%
same,Activity,[19],16%
same,Activity,[20],32%
same,fold change (FC),[21],4.7
same,Activity,[22],41%
same,EC50,[23],248 µM
same,Activity,[24],18%
same,Activity,[25],22%
same,Activity,[26],10%
same,Activity,[27],Active
same,Activity,[28],18%
same,Activity,[29],Dose-dependent effect
same,Activity,[30],8%
same,fold change (FC),[31],6.2
same,Activity,[32],13%
same,EC50,[33],0.0216 µM
same,Activity,[34],Active
same,inhibition,[35],Active
same,Activity,[36],10%
same,Activity,[37],Non-toxic
same,EC50,[38],52.8 µM
same,Activity,[39],Dose-dependent effect
same,Activity,[40],14%
same,Activity,[8],Dose-dependent effect
CC(=O)N(O)CCCCCNC(=O)CCC(=O)N(O)CCCCCNC(=O)CCC(=O)N(O)CCCCCN [DEFEROXAMINE],EC50,[41],384 µM
same,selectivity ratio,[42],> 1
same,CC50,[5]; u373-magi,> 400 µM
same,Activity,[8],Dose-dependent effect
Oc1ccc(/C=C/c2cc(O)cc(O)c2)cc1 [RESVERATROL],Activity,[43],16%
same,EC50,[41],99.6 µM
same,Activity,[44],38%
same,Activity,[45],18%
same,CC50,[5]; U373-MAGI cells,> 400 µM
same,Activity,[46],4%
same,Activity,[47],22%
same,Activity,[8],Dose-dependent effect
